Measured values from paper PMC7558026, “Exploring and applying the substrate promiscuity of a C-glycosyltransferase in the chemo-enzymatic synthesis of bioactive C-glycosides” (Nature Communications, 2020).
“And” between values parts separate entries of the source, which are not always exact repeats. Identical values can stand only once.

Experiments:
Format in all cases: biochemical, Aloe barbadensis
AbCGT [1] = experiment: Effects of pH, temperature and divalent metal ions on AbCGT activity (phloretin 17 + UDP-Glc); settings: for relative activity / conversion rates of Phloretin: in presence of the divalent cation or EDTA; for relative activity: relative to CK; for effect of divalent metal ion on catalytic activity of AbCGT (in words): 5 mM, phloretin (17) + UDP-Glc, 10 min
Protocol: To assay for the optimal reaction temperature, the reaction mixtures were incubated at pH 11.0 and different temperatures (15–60 °C). To test the necessity of divalent metal ions for AbCGT, BaCl2, CaCl2, CoCl2, CuCl2, FeCl2, MgCl2, MnCl2, ZnCl2, and EDTA were used individually at a final concentration of 5 mM. […] For quantification, three parallel assays were routinely carried out.

AbCGT [2] = target: AbCGT (Aloe vera, UniProt A0A7G9P699); experiment: Glycosyltransferase activity assay, purified AbCGT (wild type) with aglycon acceptors and UDP-Glc; settings: for conversion rates, O,N,S-glycosylation / conversion rates, di-C-glycosylation / conversion rates, mono-C-glycosylation: aglycon acceptor with UDP-Glc, pH 7.4, 30 °C, up to 12 h, Reaction-1 to -3
Sequence of AbCGT (Aloe vera, UniProt A0A7G9P699) (A0A7G9P699 entry or part of it): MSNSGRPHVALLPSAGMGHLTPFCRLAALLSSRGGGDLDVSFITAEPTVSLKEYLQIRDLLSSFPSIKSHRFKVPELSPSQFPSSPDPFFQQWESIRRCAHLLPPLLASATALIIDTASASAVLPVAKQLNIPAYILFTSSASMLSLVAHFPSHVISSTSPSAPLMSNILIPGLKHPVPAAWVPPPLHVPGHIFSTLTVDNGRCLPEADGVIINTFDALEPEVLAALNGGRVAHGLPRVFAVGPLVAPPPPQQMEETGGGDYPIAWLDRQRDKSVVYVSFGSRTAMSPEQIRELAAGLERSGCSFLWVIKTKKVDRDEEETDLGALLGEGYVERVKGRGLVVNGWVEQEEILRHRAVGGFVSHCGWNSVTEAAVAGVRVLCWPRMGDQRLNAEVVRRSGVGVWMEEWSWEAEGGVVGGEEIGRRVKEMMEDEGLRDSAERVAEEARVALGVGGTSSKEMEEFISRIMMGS
Protocol: Due to the instability of some acceptors in the buffer of pH 11.0, the reactions were performed under the physiological conditions (pH 7.4, 30 °C) to compare the catalytic activities of AbGT27 with different substrates under the same conditions. The reactions were performed at 30 °C for up to 12 h and terminated by the addition of 200 μL of ice-cold methanol. Subsequently, samples were centrifuged at 15,000 × g for 30 min to collect the supernatant, and aliquots were analyzed by HPLC-UV/ESIMS. […] The gradient programs were used for the analysis of the reactions (Supplementary Table 6). The conversion rates of the enzyme reactions were calculated from peak areas of glycosylated products and substrates as analyzed by HPLC. To facilitate inferential statistical analysis, three parallel assays were routinely performed; the means ± SD from triplicate analyses are reported here.

AbCGT V183D = target: T1, AbCGT V183D (Aloe vera, UniProt A0A7G9P699, V183D); experiment: Glycosyltransferase activity of AbCGT variant V183D
T1 sequence (A0A7G9P699 1-470 V183D): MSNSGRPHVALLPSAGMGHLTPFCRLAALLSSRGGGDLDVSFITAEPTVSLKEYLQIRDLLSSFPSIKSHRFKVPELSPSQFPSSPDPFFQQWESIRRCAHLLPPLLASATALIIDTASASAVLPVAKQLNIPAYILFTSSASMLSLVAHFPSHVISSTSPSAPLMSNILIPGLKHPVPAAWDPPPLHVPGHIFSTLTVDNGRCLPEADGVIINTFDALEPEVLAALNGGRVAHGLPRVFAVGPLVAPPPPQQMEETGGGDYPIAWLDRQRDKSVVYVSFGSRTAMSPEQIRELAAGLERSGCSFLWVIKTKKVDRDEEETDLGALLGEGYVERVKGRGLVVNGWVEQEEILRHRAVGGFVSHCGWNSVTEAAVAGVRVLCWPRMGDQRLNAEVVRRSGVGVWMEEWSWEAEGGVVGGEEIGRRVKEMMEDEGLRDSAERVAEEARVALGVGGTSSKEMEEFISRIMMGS
Protocol: The reaction mixture contained 0.5 mM sugar donors (1.0 mM for di-glycosylation), 0.25 mM aglycons, 50 mM Tris-HCl (pH 7.4), and 50‒100 μg of purified AbCGT in a final volume of 100 μL. Due to the instability of some acceptors in the buffer of pH 11.0, the reactions were performed under the physiological conditions (pH 7.4, 30 °C) to compare the catalytic activities of AbGT27 with different substrates under the same conditions. The reactions were performed at 30 °C for up to 12 h and terminated by the addition of 200 μL of ice-cold methanol. Subsequently, samples were centrifuged at 15,000 × g for 30 min to collect the supernatant, and aliquots were analyzed by HPLC-UV/ESIMS. HPLC analysis was performed on a Shiseido CAPCELL PAK C18 MG III column (250 mm × 4.6 mm I.D., 5 μm, Shiseido Co., Ltd., Japan) at a flow rate of 1 mL min^‒1. The mobile phase was a gradient elution of solvents A (0.1% formic acid aqueous solution) and B (methanol). The gradient programs were used for the analysis of the reactions (Supplementary Table 6). The conversion rates of the enzyme reactions were calculated from peak areas of glycosylated products and substrates as analyzed by HPLC. To facilitate inferential statistical analysis, three parallel assays were routinely performed; the means ± SD from triplicate analyses are reported here.
Site-saturation mutagenesis of AbCGT at residue 183 was performed by PCR using pET28a-AbCGT as a template and the corresponding degenerate primers, which are listed in Supplementary Table 5. PCR products were purified and transformed into Trans1-T1 (DE3) E. coli. The sequences of pET28a-AbCGT mutants were confirmed by sequencing, and transformed into Transetta (DE3) E. coli for heterologous expression following protein purification.

conversion rates, O,N,S-glycosylation (AbCGT [2])	conversion rates, di-C-glycosylation (AbCGT [2])	conversion rates, mono-C-glycosylation (AbCGT [2])	SMILES	relative activity (AbCGT [1]; reaction-1)	relative activity (AbCGT [1]; reaction-2)	relative activity (AbCGT [1]; reaction-3)	conversion rates of Phloretin (AbCGT [1]; reaction-1)	conversion rates of Phloretin (AbCGT [1]; reaction-2)	conversion rates of Phloretin (AbCGT [1]; reaction-3)	other results
–	–	–	[Ba+2].[Cl-].[Cl-] [Ba2+]	119.8	122.9	119.3	62	63.6	61.7	–
–	–	–	[Ba+2].[Cl-].[Cl-] [Ba^2+]	–	–	–	–	–	–	effect of divalent metal ion on catalytic activity of AbCGT (in words) (AbCGT [1]): greatly enhanced the catalytic activity of AbCGT
–	–	–	[Ca+2].[Cl-].[Cl-] [Ca2+]	149.8	161.0	139.4	77.5	83.3	72.1	–
–	–	–	[Ca+2].[Cl-].[Cl-] [Ca^2+]	–	–	–	–	–	–	effect of divalent metal ion on catalytic activity of AbCGT (in words) (AbCGT [1]): greatly enhanced the catalytic activity of AbCGT
–	–	–	[Co+2] [Co2+]	36.5	41.0	43.9	18.9	21.2	22.7	–
0%	0%	86.7% and 87.5% and 90.2%	Cc1cc(O)cc(O)c1C=O [Compound 8]	–	–	–	–	–	–	–
0%	0%	45.2% and 41.8% and 43%	CC(=O)c1c(C)cc(O)cc1O [Compound 9]	–	–	–	–	–	–	–
0%	100%	0%	O=Cc1c(O)cc(O)cc1O [Compound 10]	–	–	–	–	–	–	–
0%	0%	100%	CC(=O)c1c(O)cc(O)c(C(C)=O)c1O [Compound 12]	–	–	–	–	–	–	–
0%	0%	0%	COc1cc(OC)c(C(C)=O)c(OC)c1 [Compound 15]	–	–	–	–	–	–	–
0%	100%	0%	CCCCC(=O)c1c(O)cc(O)cc1O [Compound 16]	–	–	–	–	–	–	–
0%	93.8% and 92% and 91.6%	3.2% and 4.7% and 4%	O=C(OCCCc1ccccc1)c1c(O)cc(O)cc1O [Compound 18]	–	–	–	–	–	–	–
0%	63% and 63.5% and 65.1%	37% and 36.5% and 34.9%	O=C(c1ccc(O)c(O)c1)c1c(O)cc(O)cc1O [Compound 19]	–	–	–	–	–	–	–
90% and 92% and 94.8%	0%	0%	Cc1cc(=O)oc2cc(O)ccc12 [Compound 24, 7-hydroxy-4-methylcoumarin]	–	–	–	–	–	–	–
87% and 86% and 85.3%	0%	0%	Cc1cc(=O)oc2cc(S)ccc12 [Compound 25, 7-mercapto-4-methylcoumarin]	–	–	–	–	–	–	–
–	–	–	[Cu+2] [Cu2+]	0.0	0.0	0.0	0	0	0	–
–	–	–	O=C(O)CN(CCN(CC(=O)O)CC(=O)O)CC(=O)O [EDTA]	89.5	90.9	102.3	46.3	47	52.9	–
–	–	–	[Fe+2] [Fe2+]	23.0	24.7	18.0	11.9	12.8	9.3	–
–	–	–	[Cl-].[Cl-].[Mg+2] [Mg2+]	157.2	160.4	167.6	81.3	83	86.7	–
–	–	–	[Cl-].[Cl-].[Mg+2] [Mg^2+]	–	–	–	–	–	–	effect of divalent metal ion on catalytic activity of AbCGT (in words) (AbCGT [1]): greatly enhanced the catalytic activity of AbCGT
–	–	–	[Cl][Mn][Cl] [Mn2+]	162.4	178.6	171.3	84	92.4	88.6	–
–	–	–	[Cl][Mn][Cl] [Mn^2+]	–	–	–	–	–	–	effect of divalent metal ion on catalytic activity of AbCGT (in words) (AbCGT [1]): greatly enhanced the catalytic activity of AbCGT
–	–	–	[Ni+2] [Ni2+]	13.7	12.0	15.5	7.1	6.2	8	–
–	–	–	[Zn+2] [Zn2+]	1.9	3.9	1.9	1	2	1	–

SMILES	conversion rates, O,N,S-glycosylation (AbCGT [2])	conversion rates, di-C-glycosylation (AbCGT [2])	conversion rates, mono-C-glycosylation (AbCGT [2])	relative activity (AbCGT [1]; reaction-1)	relative activity (AbCGT [1]; reaction-2)	relative activity (AbCGT [1]; reaction-3)	conversion rates of Phloretin (AbCGT [1]; reaction-1)	conversion rates of Phloretin (AbCGT [1]; reaction-2)	conversion rates of Phloretin (AbCGT [1]; reaction-3)	other results
CC(=O)c1ccccc1O [Compound 1]	30.2% and 31% and 32.1%	0%	0%	–	–	–	–	–	–	WT/yield of C-glycoside(%) (AbCGT [2]; reaction-1): 0%; WT/yield of O-glycoside(%) (AbCGT [2]; reaction-1): 32.8%; WT/yield of C-glycoside(%) (AbCGT [2]; reaction-2): 0%; WT/yield of O-glycoside(%) (AbCGT [2]; reaction-2): 33.5%; WT/yield of C-glycoside(%) (AbCGT [2]; reaction-3): 0%; WT/yield of O-glycoside(%) (AbCGT [2]; reaction-3): 28.2%; V183D/yield of C-glycoside(%) (AbCGT V183D; reaction-1): 0%; V183D/yield of O-glycoside(%) (AbCGT V183D; reaction-1): 0%; V183D/yield of C-glycoside(%) (AbCGT V183D; reaction-2): 0%; V183D/yield of O-glycoside(%) (AbCGT V183D; reaction-2): 0%; V183D/yield of C-glycoside(%) (AbCGT V183D; reaction-3): 0%; V183D/yield of O-glycoside(%) (AbCGT V183D; reaction-3): 0%
